From ChEMBL document CHEMBL1201862, “PubChem BioAssay data set” (2004)
Activity calls are given as the source filed them.

How the values were obtained:
Protein skinhead-1 = biological target: T1, Protein skinhead-1 (Caenorhabditis elegans, UniProt P34707); format: functional
T1 sequence (P34707 whole entry): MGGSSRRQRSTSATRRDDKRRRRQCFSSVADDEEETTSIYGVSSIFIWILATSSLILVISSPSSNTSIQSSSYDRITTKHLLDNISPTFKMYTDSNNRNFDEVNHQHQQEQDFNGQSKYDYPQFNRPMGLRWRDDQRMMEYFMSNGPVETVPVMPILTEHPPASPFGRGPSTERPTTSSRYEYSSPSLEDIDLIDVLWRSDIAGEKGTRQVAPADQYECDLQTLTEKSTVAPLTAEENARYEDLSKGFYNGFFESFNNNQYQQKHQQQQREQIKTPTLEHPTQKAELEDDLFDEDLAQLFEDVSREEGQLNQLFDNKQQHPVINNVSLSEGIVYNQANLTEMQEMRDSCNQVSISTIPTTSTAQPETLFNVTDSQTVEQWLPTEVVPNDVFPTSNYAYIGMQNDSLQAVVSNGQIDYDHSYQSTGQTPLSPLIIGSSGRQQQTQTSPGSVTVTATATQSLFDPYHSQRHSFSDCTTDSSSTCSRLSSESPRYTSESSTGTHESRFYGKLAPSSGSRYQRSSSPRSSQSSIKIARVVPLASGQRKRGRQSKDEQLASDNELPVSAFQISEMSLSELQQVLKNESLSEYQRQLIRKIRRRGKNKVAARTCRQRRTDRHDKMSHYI

[1] = biological target: T2, Rac GTPase-activating protein 1 (Homo sapiens, UniProt Q9H0H5); assay: blockers of MgcRacGAP-driven Rac1 GTP hydrolysis – biochemical, ADP Hunter fluorescence, primary and confirmatory, confirmation (AID 624330); format: functional
T2 sequence (Q9H0H5 whole entry): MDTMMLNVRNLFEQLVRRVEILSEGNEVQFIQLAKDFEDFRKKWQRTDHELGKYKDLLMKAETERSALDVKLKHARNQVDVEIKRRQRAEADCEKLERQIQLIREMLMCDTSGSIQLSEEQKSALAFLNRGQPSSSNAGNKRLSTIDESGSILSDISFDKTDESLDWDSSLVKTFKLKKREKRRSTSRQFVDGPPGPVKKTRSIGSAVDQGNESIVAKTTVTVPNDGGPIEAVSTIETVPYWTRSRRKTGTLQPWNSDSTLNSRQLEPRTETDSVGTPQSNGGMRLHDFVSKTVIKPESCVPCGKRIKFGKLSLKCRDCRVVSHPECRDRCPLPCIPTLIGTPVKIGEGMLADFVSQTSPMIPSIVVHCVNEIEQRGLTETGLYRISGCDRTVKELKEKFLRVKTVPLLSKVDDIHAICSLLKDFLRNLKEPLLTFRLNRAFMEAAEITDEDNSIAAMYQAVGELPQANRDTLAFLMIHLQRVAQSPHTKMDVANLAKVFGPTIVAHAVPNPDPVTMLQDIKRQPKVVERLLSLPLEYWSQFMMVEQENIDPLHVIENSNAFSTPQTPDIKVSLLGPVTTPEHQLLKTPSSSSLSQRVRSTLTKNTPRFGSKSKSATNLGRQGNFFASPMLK

Nonstructural protein 1 = Nonstructural protein 1 (Influenza A virus, UniProt Q194T2); format: functional, Influenza A virus (A/California/07/2009(H1N1))
Sequence of Nonstructural protein 1 (Q194T2 whole entry): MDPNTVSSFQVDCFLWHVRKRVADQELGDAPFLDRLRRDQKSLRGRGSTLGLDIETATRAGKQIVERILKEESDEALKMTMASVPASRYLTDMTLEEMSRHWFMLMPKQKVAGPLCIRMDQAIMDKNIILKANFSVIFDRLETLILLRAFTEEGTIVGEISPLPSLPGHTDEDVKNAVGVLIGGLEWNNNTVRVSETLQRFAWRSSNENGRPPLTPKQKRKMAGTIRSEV

Large T antigen = Large T antigen (Simian virus 40, UniProt P03070); format: functional, Betapolyomavirus macacae;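 also: Confirmatory-stage PubChem screen for compounds that inhibit SV40 T antigen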
Sequence of Large T antigen (P03070 whole entry): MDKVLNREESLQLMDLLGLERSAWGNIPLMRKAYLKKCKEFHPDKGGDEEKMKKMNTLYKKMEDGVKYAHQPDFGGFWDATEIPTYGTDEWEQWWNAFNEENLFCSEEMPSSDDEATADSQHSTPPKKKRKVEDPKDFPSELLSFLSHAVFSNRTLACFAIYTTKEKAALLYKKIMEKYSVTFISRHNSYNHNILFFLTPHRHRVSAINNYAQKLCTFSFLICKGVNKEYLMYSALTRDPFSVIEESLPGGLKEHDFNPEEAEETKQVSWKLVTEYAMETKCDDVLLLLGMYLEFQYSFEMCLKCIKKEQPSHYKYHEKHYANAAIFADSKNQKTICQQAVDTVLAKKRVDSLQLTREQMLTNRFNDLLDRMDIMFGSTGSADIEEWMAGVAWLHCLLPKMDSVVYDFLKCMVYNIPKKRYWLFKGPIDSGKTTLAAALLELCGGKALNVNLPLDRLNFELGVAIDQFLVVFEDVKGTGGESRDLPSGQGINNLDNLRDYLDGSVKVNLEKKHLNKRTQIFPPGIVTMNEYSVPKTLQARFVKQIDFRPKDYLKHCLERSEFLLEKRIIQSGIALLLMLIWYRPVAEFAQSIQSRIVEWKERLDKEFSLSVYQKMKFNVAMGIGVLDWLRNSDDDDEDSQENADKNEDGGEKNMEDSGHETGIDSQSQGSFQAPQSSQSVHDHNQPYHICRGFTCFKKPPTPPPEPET

[2] = biological target: T3, Zinc finger protein mex-5 (Caenorhabditis elegans, UniProt Q9XUB2); assay: potency of MEX-5 RNA-binding blockers – biochemical, C. elegans, fluorescence polarization, dose response (AID 1960)
T3 sequence (Q9XUB2 whole entry): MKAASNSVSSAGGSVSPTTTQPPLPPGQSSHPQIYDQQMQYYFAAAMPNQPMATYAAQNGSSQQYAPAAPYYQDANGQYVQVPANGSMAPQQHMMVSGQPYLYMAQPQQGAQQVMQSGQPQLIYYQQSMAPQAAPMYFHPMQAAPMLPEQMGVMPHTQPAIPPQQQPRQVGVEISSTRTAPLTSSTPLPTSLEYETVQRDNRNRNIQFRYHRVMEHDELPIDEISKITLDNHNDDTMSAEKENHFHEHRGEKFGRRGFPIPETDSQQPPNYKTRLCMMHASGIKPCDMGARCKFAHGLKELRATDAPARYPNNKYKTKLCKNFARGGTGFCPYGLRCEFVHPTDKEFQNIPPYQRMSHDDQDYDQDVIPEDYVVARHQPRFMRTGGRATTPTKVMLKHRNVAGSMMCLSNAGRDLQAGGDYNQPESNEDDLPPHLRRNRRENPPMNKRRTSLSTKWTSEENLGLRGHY

[3] = biological target: T4, RNA-binding protein pos-1 (Caenorhabditis elegans, UniProt G5EF15); assay: disruptors of C. elegans POS-1 RNA interaction – biochemical, fluorescence polarization, dose response (AID 1964);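 also: purified POS-1 fused to maltose binding protein made in E. coli; potency of compounds blocking POS-1 binding to fluorescent RNA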
T4 sequence (G5EF15 whole entry): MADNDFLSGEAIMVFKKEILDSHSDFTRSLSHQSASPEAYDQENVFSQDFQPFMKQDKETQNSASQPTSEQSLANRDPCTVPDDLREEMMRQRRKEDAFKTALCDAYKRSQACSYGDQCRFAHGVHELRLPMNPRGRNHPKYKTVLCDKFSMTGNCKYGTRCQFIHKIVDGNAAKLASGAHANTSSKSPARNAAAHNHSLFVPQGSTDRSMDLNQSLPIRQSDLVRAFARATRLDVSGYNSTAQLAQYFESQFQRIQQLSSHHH

[4] = P. falciparum Dd2 growth inhibitors, dose response, SYBR Green, cherry-picked samples (AID 1159567); format: functional, cell-based
[5] = Luminescence Cell-Based Dose Confirmation HTS to Identify Inhibitors of Platelet Dense Granule Release. [Related pubchem assays: 1663 (Primary HTS), 1678 (Summary of Project)]; format: functional
[6] = biological target: Luciferin 4-monooxygenase (Photinus pyralis, UniProt P08659); assay: inhibition of purified Photinus pyralis luciferase – biochemical, luminescence, dose response (AID 1891)
Sequence of Luciferin 4-monooxygenase (P08659 whole entry): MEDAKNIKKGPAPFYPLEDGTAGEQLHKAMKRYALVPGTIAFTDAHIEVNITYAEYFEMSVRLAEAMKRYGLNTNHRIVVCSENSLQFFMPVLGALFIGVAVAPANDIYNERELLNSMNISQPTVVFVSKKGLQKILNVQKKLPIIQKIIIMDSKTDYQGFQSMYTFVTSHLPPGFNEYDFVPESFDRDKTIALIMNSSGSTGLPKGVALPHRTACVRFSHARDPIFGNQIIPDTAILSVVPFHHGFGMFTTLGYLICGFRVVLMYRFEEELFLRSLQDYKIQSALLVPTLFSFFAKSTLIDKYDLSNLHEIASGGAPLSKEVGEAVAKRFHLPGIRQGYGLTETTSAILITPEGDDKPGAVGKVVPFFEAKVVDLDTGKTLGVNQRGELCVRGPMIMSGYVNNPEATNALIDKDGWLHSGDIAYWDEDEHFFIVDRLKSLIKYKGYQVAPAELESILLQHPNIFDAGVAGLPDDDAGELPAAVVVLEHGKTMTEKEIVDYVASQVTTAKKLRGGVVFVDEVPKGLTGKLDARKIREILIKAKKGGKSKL

[7] = viability of PTEN-deleted HCT116 cells – cell-based, HCT116 PTEN knockout, dose response (AID 1047); format: functional;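 also: HCT116 colon tumor cells with PTEN knocked out; cells exposed to compound for 60 hours before readout; potency for loss of cell viability measured by luminescence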
[8] = viability of HCT116 lacking mutant beta-catenin – cell-based, human colon tumor, dose response (AID 1045); format: functional;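 also: HCT116 colon tumor cells with beta catenin knocked out; cells exposed to compound for 60 hours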
H9c2 = assay: cells; format: functional, cell-based; conditions: Rattus norvegicus, H9c2, Myocardium
[9] = microbe, parasite or virus in culture; format: functional; conditions: Mycobacterium tuberculosis
[10] = biological target: T5, Ubiquitin-conjugating enzyme E2 N (Homo sapiens, UniProt P61088); format: functional;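 also: Dose-response confirmation in a TR-FRET assay detecting UBC13-driven polyubiquitin chain formation, inhibition measured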
T5 sequence (P61088 whole entry): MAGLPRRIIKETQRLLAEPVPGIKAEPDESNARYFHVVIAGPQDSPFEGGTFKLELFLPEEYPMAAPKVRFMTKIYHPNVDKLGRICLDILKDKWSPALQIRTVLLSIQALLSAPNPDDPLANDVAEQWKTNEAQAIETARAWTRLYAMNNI

Streptococcus = assay: GAS UMAA2166 growth inhibition – luminescence, BacTiterGlo, counter-screen for streptokinase expression inhibitor project, dose response (AID 1915); format: functional, organism-based;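 also: potency for reduction of bacterial viability or growth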
[11] = system: Streptococcus sp. 'group A'; assay: Streptococcus pyogenes SK(-)GAS viability under kanamycin – luminescence, BacTiterGlo, confirmation, counter-screen for streptokinase expression inhibitor project, dose response (AID 1900); format: functional, organism-based
Streptokinase A = biological target: T6, Streptokinase A (Streptococcus pyogenes serotype M1, UniProt P10520); assay: viability-normalized secreted streptokinase activity reduction – plasminogen activation absorbance, OD405, dose response (AID 1914); format: functional, Streptococcus pyogenes M1 GAS;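 also: secreted streptokinase activity via plasminogen activation per viability signal from cell pellet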
T6 sequence (P10520 whole entry): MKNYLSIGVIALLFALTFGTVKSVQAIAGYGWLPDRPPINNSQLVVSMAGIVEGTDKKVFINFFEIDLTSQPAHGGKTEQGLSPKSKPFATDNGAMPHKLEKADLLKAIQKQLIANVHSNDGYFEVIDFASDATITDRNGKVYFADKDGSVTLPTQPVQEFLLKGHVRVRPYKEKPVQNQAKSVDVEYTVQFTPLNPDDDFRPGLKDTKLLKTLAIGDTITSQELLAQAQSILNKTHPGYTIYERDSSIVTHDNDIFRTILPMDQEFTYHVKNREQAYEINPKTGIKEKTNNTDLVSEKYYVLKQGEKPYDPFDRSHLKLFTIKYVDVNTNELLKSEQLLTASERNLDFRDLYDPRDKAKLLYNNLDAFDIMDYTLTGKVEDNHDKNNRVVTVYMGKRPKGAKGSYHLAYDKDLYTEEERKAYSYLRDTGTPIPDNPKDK

## N#Cc1cncc(C#Cc2ccccc2)c1
Protein skinhead-1
  IC50: 16.9 µM (active)

## Oc1ccc(/C=N/NC(=S)NCCN2CCOCC2)c(O)c1
[1]
  IC50: 20.6 µM (active)
Nonstructural protein 1
  IC50: 6.59 µM (active)
Large T antigen
  IC50: 7.26 µM (active)

## CC1(C)CC(=O)C2=C(C1)OC(/N=C/N1CCOCC1)=C(C#N)C2c1ccccc1 (stereo unspecified)
[2]
  EC50: > 300 µM (not active)
[3]
  EC50: > 300 µM (not active)

## COC(=O)c1ccc(CN2CC(=O)N3[C@H](CO)[C@@H](c4ccc(-c5ccccc5F)cc4)[C@H]3C2)cc1
[4]
  AC50: 30 µM (active)

## COCOCCn1cc(CN2CCS(=O)(=O)N(Cc3ccc(-c4cccc(N(C)C)c4)cc3)C(C(C)C)C2=O)nn1 (stereo unspecified)
Protein skinhead-1
  IC50: > 100 µM (inactive)

## CCOc1ccc(N2CC(C(=O)NCCc3ccc(OC)c(OC)c3)CC2=O)cc1 (stereo unspecified)
[5]
  EC50: 36.1 µM (active)
[6]
  EC50: > 112 µM (not active)

## COc1ccc2c3c(n(C)c2c1)[C@H](CO)N(Cc1ccncc1)CC31CCN(C(=O)Cc2ccncc2)CC1
[4]
  AC50: 7.67 µM (active)

## COc1ccc(CNc2ccc(-c3ccc(OC)cc3)nn2)cc1
[5]
  EC50: > 112 µM (not active)
[6]
  EC50: > 112 µM (not active)

## N#CC1=C(N)OC2=C(C(=O)CCC2)C1c1cc2c(cc1Cl)OCO2 (stereo unspecified)
[2]
  EC50: > 300 µM (not active)
[3]
  EC50: > 300 µM (not active)

## COc1ccc(C(=O)C(CCC(CNC(C)(C)C)C(=O)c2ccc(OC)cc2)CNC(C)(C)C)cc1 (stereo unspecified)
[5]
  EC50: 4.24 µM (active)
[7]
  EC50: 3.04 µM (active)
[6]
  EC50: > 112 µM (not active)
[8]
  EC50: 2.48 µM (active)

## Brc1cccc(-c2nc(-c3ccncc3)no2)c1
Protein skinhead-1
  IC50: 16.6 µM (active)

## Cc1cc2ccccc2n1CCNC(=O)C1CCCC1
Protein skinhead-1
  IC50: > 100 µM (inactive)

## Cc1cc(-n2c(C)cc(C(=O)COc3ccc4ccc(=O)oc4c3)c2C)no1
H9c2
  IC50: 24.7 µM (active)
[9]
  CC50: > 40 µM (active)

## CCN(CC)CCC(c1ccc(N(C)C)cc1)c1c(OC)cc(OC)c2c(-c3ccccc3)cc(=O)oc12 (stereo unspecified)
Nonstructural protein 1
  IC50: 13.6 µM (active)
[10]
  IC50: > 20 µM (inactive)

## Oc1ccc2ccccc2c1N=Nc1ccccc1F
Nonstructural protein 1
  IC50: 20.4 µM (active)

## Cc1[nH]c2ccccc2c1C(c1ccccn1)c1c(C)[nH]c2ccccc12
Nonstructural protein 1
  IC50: > 100 µM (active)
Streptococcus
  EC50: 12.1 µM (active)
[11]
  EC50: 5.36 µM (active)
Streptokinase A
  EC50: > 150 µM (not active)

## O=[N+]([O-])c1cc(-c2ccc(/C=N/n3cnnc3)o2)ccc1Cl
[2]
  EC50: 32.5 µM (active)
[3]
  EC50: 30.1 µM (active)

## COc1cccc(NC(=O)C2CCCN(c3ncnc4c3nc3n4CCCCC3)C2)c1 (stereo unspecified)
Protein skinhead-1
  IC50: > 100 µM (inactive)

## CCCn1c(O)c(C#N)c(C)c(CN2CCCCC2)c1=O
[2]
  EC50: > 300 µM (not active)
[3]
  EC50: > 300 µM (inconclusive)

## CN(C)c1ccc(N=Nc2ccccc2C(=O)OCC(=O)NCC2CCCCC2)cc1
[9]
  CC50: > 40 µM (active)

## CSc1ccc(/C=N/NC(=O)c2cccc(O)c2)cc1
[5]
  EC50: 6.7 µM (active)
[6]
  EC50: 0.619 µM (active)

## CC(=O)Nc1cccc(N2C(=O)CC(Cc3ccccc3)C2=O)c1 (stereo unspecified)
[5]
  EC50: > 112 µM (not active)
[6]
  EC50: > 112 µM (not active)

## Cc1ccn2c(-c3csc(NCc4ccccc4)n3)c(C)nc2c1
[9]
  CC50: > 40 µM (active)

## COc1ccc(CN2C[C@H](C)[C@@H](OC)CN(C)C(=O)c3cc(NC(=O)c4nc5ccccc5s4)ccc3OC[C@@H]2C)cc1
[4]
  AC50: 4.9 µM (active)

## CCOC(=O)c1ccc(/N=C2\C(=S)N(c3ccc(C(=O)OCC)cc3)C(=N)N2/N=C/c2ccccc2)cc1
[9]
  CC50: > 40 µM (active)

## CC1C/C(=N/Nc2ccc([N+](=O)[O-])cc2[N+](=O)[O-])CC(C)(C)C1 (stereo unspecified)
Nonstructural protein 1
  IC50: 46 µM (active)

## COC(=O)c1cccc(NC(=O)Nc2ccc(Cl)cc2Cl)c1
[5]
  EC50: > 112 µM (not active)
[6]
  EC50: > 112 µM (not active)

## Cc1ccc(NS(=O)(=O)c2cccc(C(=O)N3CCCCCC3)c2)cc1
[5]
  EC50: > 112 µM (not active)
[6]
  EC50: > 112 µM (not active)

## Cc1ccc(NC(=O)C(=O)c2ccc(C)cc2)cc1
Protein skinhead-1
  IC50: 98.5 µM (inactive)

## COc1cc(OC)c(NC(=O)c2cc(S(=O)(=O)N3CCOCC3)cn2C)cc1Cl
[5]
  EC50: > 112 µM (not active)
[6]
  EC50: > 112 µM (not active)
